What was measured:
[1] = target: Glycogen synthase kinase-3 beta (Homo sapiens) (UniProt P49841); experiment: Inhibition of human GSK3-beta assessed as residual enzyme activity at 0.3 uM after 40 mins by scintillation counting
[2] = Cytotoxicity against human Hs 578T cells assessed as cell growth at 10 uM after 48 hrs by MTT assay; type: functional; details: read-out: Activity
SK-MEL-2 = experiment: Cytotoxicity against human SK-MEL-2 cells assessed as cell growth at 10 uM after 48 hrs by MTT assay; type: functional; details: SK-MEL-2, 48 h, read-out: Activity
SN12C = experiment: Cytotoxicity against human SN12C cells assessed as cell growth at 10 uM after 48 hrs by MTT assay; type: functional; details: read-out: Activity
TK-10 = experiment: Cytotoxicity against human TK10 cells assessed as cell growth at 10 uM after 48 hrs by MTT assay; type: functional; details: TK-10, 48 h, read-out: Activity
SR = experiment: Cytotoxicity against human SR cells assessed as cell growth at 10 uM after 48 hrs by MTT assay; type: functional; details: read-out: Activity
OVCAR-3 [3] = experiment: Cytotoxicity against human OVCAR-3 cells assessed as cell growth at 10 uM after 48 hrs by MTT assay; type: functional; details: OVCAR-3, 48 h, read-out: Activity
SK-MEL-5 = experiment: Cytotoxicity against human SK-MEL-5 cells assessed as cell growth at 10 uM after 48 hrs by MTT assay; type: functional; details: SK-MEL-5, 48 h, read-out: Activity
SF-539 = experiment: Cytotoxicity against human SF539 cells assessed as cell growth at 10 uM after 48 hrs by MTT assay; type: functional; details: SF-539, 48 h, read-out: Activity
LOX IMVI = experiment: Cytotoxicity against human LOXIMVI cells assessed as cell growth at 10 uM after 48 hrs by MTT assay; type: functional; details: read-out: Activity
MDA-MB-231 = experiment: Cytotoxicity against human MDA-MB-231 cells assessed as cell growth at 10 uM after 48 hrs by MTT assay; type: functional; details: MDA-MB-231, 48 h, read-out: Activity
[4] = target: Cyclin-dependent kinase 1/cyclin B1 (Homo sapiens) (UniProt P06493+P14635); experiment: Inhibition of human CDK1/Cyclin B assessed as residual enzyme activity at 3 uM after 40 mins by scintillation counting; type: protein-complex assay
OVCAR-8 = experiment: Cytotoxicity against human OVCAR8 cells assessed as cell growth at 10 uM after 48 hrs by MTT assay; type: functional; details: OVCAR-8, 48 h, read-out: Activity
IGROV-1 = experiment: Cytotoxicity against human IGROV1 cells assessed as cell growth at 10 uM after 48 hrs by MTT assay; type: functional; details: IGROV-1, 48 h, read-out: Activity
CCRF-CEM = experiment: Cytotoxicity against human CCRF-CEM cells assessed as cell growth at 10 uM after 48 hrs by MTT assay; type: functional; details: read-out: Activity
[5] = target: Cyclin-dependent kinase 5/CDK5 activator 1 (Homo sapiens) (UniProt Q00535+Q15078); experiment: Inhibition of human CDK5/p35 assessed as residual enzyme activity at 3 uM after 40 mins by scintillation counting; type: protein-complex assay
NCI/ADR-RES [6] = experiment: Cytotoxicity against human NCI/ADR-RES cells assessed as cell growth at 10 uM after 48 hrs by MTT assay; type: functional; details: read-out: Activity
UACC-257 = experiment: Cytotoxicity against human UACC257 cells assessed as cell growth at 10 uM after 48 hrs by MTT assay; type: functional; details: UACC-257, 48 h, read-out: Activity
HCT-116 = experiment: Cytotoxicity against human HCT116 cells assessed as cell growth at 10 uM after 48 hrs by MTT assay; type: functional; details: HCT-116, 48 h, read-out: Activity
M14 = experiment: Cytotoxicity against human M14 cells assessed as cell growth at 10 uM after 48 hrs by MTT assay; type: functional; details: M14, 48 h, read-out: Activity
UACC-62 [7] = experiment: Cytotoxicity against human UACC62 cells assessed as cell growth at 10 uM after 48 hrs by MTT assay; type: functional; details: UACC-62, 48 h, read-out: Activity
SK-MEL-28 = experiment: Cytotoxicity against human SK-MEL-28 cells assessed as cell growth at 10 uM after 48 hrs by MTT assay; type: functional; details: SK-MEL-28, 48 h, read-out: Activity
[8] = target: Cyclin-dependent kinase 2/cyclin A (Homo sapiens) (UniProt P24941+P20248+P78396); experiment: Inhibition of human CDK2/Cyclin A assessed as residual enzyme activity at 0.3 uM after 40 mins by scintillation counting; type: protein-complex assay
K562 = experiment: Cytotoxicity against human K562 cells assessed as cell growth at 10 uM after 48 hrs by MTT assay; type: functional; details: K562, 48 h, read-out: Activity
OVCAR-4 [9] = experiment: Cytotoxicity against human OVCAR4 cells assessed as cell growth at 10 uM after 48 hrs by MTT assay; type: functional; details: OVCAR-4, 48 h, read-out: Activity
OVCAR-5 = experiment: Cytotoxicity against human OVCAR5 cells assessed as cell growth at 10 uM after 48 hrs by MTT assay; type: functional; details: OVCAR-5, 48 h, read-out: Activity
MCF7 = experiment: Cytotoxicity against human MCF7 cells assessed as cell growth at 10 uM after 48 hrs by MTT assay; type: functional; details: MCF7, 48 h, read-out: Activity
[10] = target: Glycogen synthase kinase-3 beta (Homo sapiens) (UniProt P49841); experiment: Inhibition of human GSK3-beta assessed as residual enzyme activity at 0.01 uM after 40 mins by scintillation counting
MDA-MB-435 = experiment: Cytotoxicity against human MDA-MB-435 cells assessed as cell growth at 10 uM after 48 hrs by MTT assay; type: functional; details: MDA-MB-435, 48 h, read-out: Activity
NCI-H226 = experiment: Cytotoxicity against human NCI-H226 cells assessed as cell growth at 10 uM after 48 hrs by MTT assay; type: functional; details: NCI-H226, 48 h, read-out: Activity
NCI/ADR-RES [11] = experiment: Cytotoxicity against human NCI/ADR-RES cells assessed as cell growth at 1 mM after 1 to 11 days by MTT assay; type: functional; details: read-out: Activity
BT-549 = experiment: Cytotoxicity against human BT549 cells assessed as cell growth at 1 mM after 1 to 11 days by MTT assay; type: functional; details: read-out: Activity
NCI-H23 = experiment: Cytotoxicity against human NCI-H23 cells assessed as cell growth at 0.1 uM after 1 to 11 days by MTT assay; type: functional; details: read-out: Activity
OVCAR-4 [12] = experiment: Cytotoxicity against human OVCAR4 cells assessed as cell growth at 10 uM after 1 to 11 days by MTT assay; type: functional; details: read-out: Activity
HL-60(TB) = experiment: Cytotoxicity against human HL-60(TB) cells assessed as cell growth at 1 uM after 1 to 11 days by MTT assay; type: functional; details: read-out: Activity
OVCAR-4 [13] = experiment: Cytotoxicity against human OVCAR4 cells assessed as cell growth at 1 mM after 1 to 11 days by MTT assay; type: functional; details: read-out: Activity
UACC-62 [14] = experiment: Cytotoxicity against human UACC62 cells assessed as cell growth at 0.1 uM after 1 to 11 days by MTT assay; type: functional; details: read-out: Activity
SNB-19 = experiment: Cytotoxicity against human SNB19 cells assessed as cell growth at 0.1 uM after 1 to 11 days by MTT assay; type: functional; details: read-out: Activity
OVCAR-3 [15] = experiment: Cytotoxicity against human OVCAR-3 cells assessed as cell growth at 1 uM after 1 to 11 days by MTT assay; type: functional; details: read-out: Activity

Sequence of Cyclin-dependent kinase 1/cyclin B1 (Homo sapiens) (P06493 whole entry, looked up): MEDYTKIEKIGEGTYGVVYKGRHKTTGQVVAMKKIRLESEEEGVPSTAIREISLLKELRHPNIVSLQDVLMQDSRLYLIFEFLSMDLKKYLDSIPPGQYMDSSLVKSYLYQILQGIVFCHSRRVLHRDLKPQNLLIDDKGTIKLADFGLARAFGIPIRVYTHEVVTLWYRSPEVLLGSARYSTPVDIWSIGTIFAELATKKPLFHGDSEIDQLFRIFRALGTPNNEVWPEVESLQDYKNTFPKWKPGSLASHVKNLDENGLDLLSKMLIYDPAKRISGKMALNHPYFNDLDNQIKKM
Sequence of Cyclin-dependent kinase 1/cyclin B1 (Homo sapiens) (P14635 whole entry, looked up): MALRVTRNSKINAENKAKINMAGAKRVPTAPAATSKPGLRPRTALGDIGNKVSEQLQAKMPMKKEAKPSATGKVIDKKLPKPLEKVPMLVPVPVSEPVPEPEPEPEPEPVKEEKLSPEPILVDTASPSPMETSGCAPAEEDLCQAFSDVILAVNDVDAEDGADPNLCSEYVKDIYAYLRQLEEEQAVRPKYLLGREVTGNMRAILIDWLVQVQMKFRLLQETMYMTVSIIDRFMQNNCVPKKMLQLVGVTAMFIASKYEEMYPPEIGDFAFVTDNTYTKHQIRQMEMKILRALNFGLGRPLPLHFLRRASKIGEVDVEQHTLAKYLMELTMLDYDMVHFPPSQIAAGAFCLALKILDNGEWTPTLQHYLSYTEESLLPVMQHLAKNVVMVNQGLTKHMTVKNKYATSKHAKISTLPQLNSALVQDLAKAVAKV
Sequence of Glycogen synthase kinase-3 beta (Homo sapiens) (P49841 whole entry, looked up): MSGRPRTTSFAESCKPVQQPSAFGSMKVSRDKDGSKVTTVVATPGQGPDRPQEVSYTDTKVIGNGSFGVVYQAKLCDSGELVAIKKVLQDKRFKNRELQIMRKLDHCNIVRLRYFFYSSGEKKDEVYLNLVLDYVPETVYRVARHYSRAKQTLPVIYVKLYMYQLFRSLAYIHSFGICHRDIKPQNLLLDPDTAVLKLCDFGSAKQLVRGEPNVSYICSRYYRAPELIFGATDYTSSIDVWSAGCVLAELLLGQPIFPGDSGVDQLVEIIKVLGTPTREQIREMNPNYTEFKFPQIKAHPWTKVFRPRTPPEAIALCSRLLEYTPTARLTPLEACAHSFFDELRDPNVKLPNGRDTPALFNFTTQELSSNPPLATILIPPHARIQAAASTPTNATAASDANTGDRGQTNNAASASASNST

Structure (SMILES)	Activity [1] [%]	growth at 10 µM [2] [%]	growth at 10 µM (SK-MEL-2) [%]	growth at 10 µM (SN12C) [%]	growth at 10 µM (TK-10) [%]	growth at 10 µM (SR) [%]	growth at 10 µM (OVCAR-3 [3]) [%]	growth at 10 µM (SK-MEL-5) [%]	growth at 10 µM (SF-539) [%]	growth at 10 µM (LOX IMVI) [%]	growth at 10 µM (MDA-MB-231) [%]	Activity [4] [%]	growth at 10 µM (OVCAR-8) [%]	growth at 10 µM (IGROV-1) [%]	growth at 10 µM (CCRF-CEM) [%]	Activity [5] [%]	growth at 10 µM (NCI/ADR-RES [6]) [%]	growth at 10 µM (UACC-257) [%]	growth at 10 µM (HCT-116) [%]	growth at 10 µM (M14) [%]	other results
CN1C(=O)/C(=C2/C(=O)N(C)c3ncccc32)c2cccnc21	105	115	83.5	105	94.4	124	132	102	117	101	117	95	88.8	52.2	89.4	84	85.5	102	90.4	92.7	growth at 10 µM (UACC-62 [7]): 103%; growth at 10 µM (SK-MEL-28): 106%; Activity [8]: 114%; growth at 10 µM (K562): 137%; growth at 10 µM (OVCAR-4 [9]): 99.8%; growth at 10 µM (OVCAR-5): 86.7%; growth at 10 µM (MCF7): 114%; Activity [10]: 94%; growth at 10 µM (MDA-MB-435): 101%; growth at 10 µM (NCI-H226): 102%
O=C1Nc2ncccc2/C1=C1/Nc2ccccc2C1=O	93	72.5	43.4	90.6	56.4	82.5	75.8	75.4	90.9	76.3	78.3	65	84.4	-40.9	88.4	39	82.7	96.5	48.5	93.8	growth at 10 µM (UACC-62 [7]): 79.6%; growth at 10 µM (SK-MEL-28): 123%; Activity [8]: 99%; growth at 10 µM (K562): 85.5%; growth at 10 µM (OVCAR-4 [9]): 80.4%; growth at 10 µM (OVCAR-5): 77.7%; growth at 10 µM (MCF7): 41%; Activity [10]: 96%; growth at 10 µM (MDA-MB-435): 92.8%; growth at 10 µM (NCI-H226): 89%
O=C1Nc2ncccc2/C1=C1/Nc2ccccc2/C1=N\O	64	-9.72	14.7	72.8	40.3	32.8	69.3	72.3	50.3	44.5	78.6	69	79.6	-25.3	84.8	19	71.8	92.6	36.9	56.4	growth at 1000 µM (NCI/ADR-RES [11]): 55%; growth at 1000 µM (BT-549): 30%; growth at 0.1 µM (NCI-H23): 96%; growth at 10 µM (OVCAR-4 [12]): 96%; growth at 1 µM (HL-60(TB)): 99%; growth at 1000 µM (OVCAR-4 [13]): 39%; growth at 0.1 µM (UACC-62 [14]): 94%; growth at 10 µM (UACC-62 [7]): 56.7%; growth at 10 µM (SK-MEL-28): 75.3%; Activity [8]: 100%; growth at 10 µM (K562): 53.2%; growth at 10 µM (OVCAR-4 [9]): 86.7%; growth at 10 µM (OVCAR-5): 87.7%; growth at 10 µM (MCF7): 87.8%; Activity [10]: 88%; growth at 10 µM (MDA-MB-435): 72.6%; growth at 10 µM (NCI-H226): 78.6%; growth at 0.1 µM (SNB-19): 94%; growth at 1 µM (OVCAR-3 [15]): 93%
